This is an account of results in ChEMBL document CHEMBL3864130, “A novel lead of P-selectin inhibitor: Discovery, synthesis, bioassays and action mechanism” (2016).

The source made the active and inactive calls. The rule behind the calls is not given here.

Assay [1] concerns Mus musculus. Description: Antithrombosis activity in ferric cholride induced ICR mouse model of thrombosis assessed as inhibition of thrombus formation at 240 umol/kg, po measured after 15 mins. Format: functional, organism-based.
For assay [2], the system named is Mus musculus. The experiment in a line: Antiinflammatory activity in xylene induced ICR mouse ear edema model assessed as decrease in ear swelling at 0.11 mmol/kg, po pretreated for 30 mins followed by topical administration of xylene measured after 2 hrs. Format: functional, organism-based.
Assay [3] relates to Rattus norvegicus. The experiment in a line: Antithrombotic activity in Sprague-Dawley rat model of thrombosis assessed as inhibition of thrombus formation at 167 umol/kg, po measured after 30 mins. The class given is functional, organism-based.
Assay [4] deals with T1, P-selectin (Rattus norvegicus) (UniProt P98106).
T1 sequence (whole entry): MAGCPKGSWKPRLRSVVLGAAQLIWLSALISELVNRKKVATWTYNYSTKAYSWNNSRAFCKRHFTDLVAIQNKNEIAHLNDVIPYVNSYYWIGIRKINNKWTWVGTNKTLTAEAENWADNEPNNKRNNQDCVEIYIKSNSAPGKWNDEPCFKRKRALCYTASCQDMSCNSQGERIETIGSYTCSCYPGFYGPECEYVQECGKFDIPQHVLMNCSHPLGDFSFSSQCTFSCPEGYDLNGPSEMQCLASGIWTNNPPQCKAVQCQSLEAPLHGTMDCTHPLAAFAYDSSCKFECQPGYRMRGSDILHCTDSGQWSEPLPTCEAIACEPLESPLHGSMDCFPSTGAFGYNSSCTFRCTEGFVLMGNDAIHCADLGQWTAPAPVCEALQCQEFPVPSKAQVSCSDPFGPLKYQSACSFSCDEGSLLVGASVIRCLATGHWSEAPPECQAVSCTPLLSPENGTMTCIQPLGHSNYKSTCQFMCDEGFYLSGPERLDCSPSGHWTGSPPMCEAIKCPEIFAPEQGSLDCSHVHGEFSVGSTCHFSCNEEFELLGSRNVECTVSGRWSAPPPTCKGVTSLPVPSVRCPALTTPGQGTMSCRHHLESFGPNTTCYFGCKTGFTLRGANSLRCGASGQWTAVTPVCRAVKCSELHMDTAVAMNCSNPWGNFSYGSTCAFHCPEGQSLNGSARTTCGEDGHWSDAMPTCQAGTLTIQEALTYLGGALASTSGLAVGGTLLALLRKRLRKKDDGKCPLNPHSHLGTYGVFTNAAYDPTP
Description: Downregulation of P-selectin expression in arachidonic acid-activated Sprague-Dawley rat platelets assessed as P-selectin levels pretreated with platelets followed by arachidonic acid addition measured after 3 mins by ELISA.

Assay [5] relates to Mus musculus. The experiment in a line: Antiinflammatory activity in xylene induced ICR mouse ear edema model assessed as decrease in ear swelling pretreated orally for 30 mins followed by topical administration of xylene measured after 2 hrs. Format: functional.
The target in assay [6] is T1, P-selectin (Rattus norvegicus). Description: Downregulation of P-selectin expression in arachidonic acid-activated Sprague-Dawley rat platelets assessed as decrease in fluorescence intensity pretreated for 30 mins followed by arachidonic acid addition measured after 5 mins by phycoerythrin-anti-[…] staining-based flow cytometry.
Assay [7] shares this target. The experiment in a line: Downregulation of P-selectin expression in arachidonic acid-activated Sprague-Dawley rat platelets assessed as mean fluorescence intensity at 20 nM pretreated for 30 mins followed by arachidonic acid addition measured after 5 mins by phycoerythrin-anti-[…] staining-based flow cytometry (reference value: 1621).
Assay [8] has the same target. Description: Downregulation of P-selectin expression in arachidonic acid-activated Sprague-Dawley rat platelets assessed as fluorescence intensity at 200 nM pretreated for 30 mins followed by arachidonic acid addition measured after 5 mins by phycoerythrin-anti-[…] staining-based flow cytometry (reference value: 1621).
The target is the same in assay [9]. The experiment in a line: Downregulation of P-selectin expression in arachidonic acid-activated Sprague-Dawley rat platelets assessed as fluorescence intensity at 2000 nM pretreated for 30 mins followed by arachidonic acid addition measured after 5 mins by phycoerythrin-anti-[…] staining-based flow cytometry (reference value: 1621).
The target in assay [10] is T2, P-selectin (Homo sapiens) (UniProt P16109).
T2 sequence (whole entry): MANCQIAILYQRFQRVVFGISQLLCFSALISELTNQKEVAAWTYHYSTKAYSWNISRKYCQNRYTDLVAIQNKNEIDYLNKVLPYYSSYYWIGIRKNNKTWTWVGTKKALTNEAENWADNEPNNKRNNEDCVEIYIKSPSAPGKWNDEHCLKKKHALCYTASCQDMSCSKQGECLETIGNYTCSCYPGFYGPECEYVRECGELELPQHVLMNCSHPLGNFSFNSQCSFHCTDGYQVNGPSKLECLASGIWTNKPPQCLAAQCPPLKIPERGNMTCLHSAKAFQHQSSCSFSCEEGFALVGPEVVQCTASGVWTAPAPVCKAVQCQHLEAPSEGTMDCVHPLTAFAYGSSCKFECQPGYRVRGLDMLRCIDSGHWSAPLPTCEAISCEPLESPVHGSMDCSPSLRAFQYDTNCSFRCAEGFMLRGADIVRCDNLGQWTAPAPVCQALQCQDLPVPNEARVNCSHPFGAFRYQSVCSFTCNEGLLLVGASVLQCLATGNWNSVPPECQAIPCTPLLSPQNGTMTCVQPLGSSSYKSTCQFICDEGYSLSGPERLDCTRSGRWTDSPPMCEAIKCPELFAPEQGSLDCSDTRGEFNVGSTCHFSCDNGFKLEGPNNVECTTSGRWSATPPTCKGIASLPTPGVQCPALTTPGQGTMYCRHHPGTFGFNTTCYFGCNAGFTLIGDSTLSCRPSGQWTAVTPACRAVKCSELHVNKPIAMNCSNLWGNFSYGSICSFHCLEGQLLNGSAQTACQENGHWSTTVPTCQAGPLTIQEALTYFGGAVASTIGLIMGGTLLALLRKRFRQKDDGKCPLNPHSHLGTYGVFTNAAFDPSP
The experiment in a line: Binding affinity to P-selectin (unknown origin) assessed as maximal absorbance at 295.4 nanometer at 0.18 mM by UV spectroscopy.

The target of assay [11] is T2, P-selectin (Homo sapiens). Description: Binding affinity to P-selectin (unknown origin) assessed as maximal absorbance at 340.8 nanometer at 0.18 mM by UV spectroscopy.
Assay [12] concerns the target T2, P-selectin (Homo sapiens). The experiment in a line: Binding affinity to P-selectin (unknown origin) assessed as maximal absorbance at 352 nanometer at 0.18 mM by UV spectroscopy.
Assay [13] concerns the target T2, P-selectin (Homo sapiens). The experiment in a line: Binding affinity to P-selectin (unknown origin) assessed as red shift at 295.4 nanometer at 0.42 mM by UV spectroscopy.
The target in assay [14] is T2, P-selectin (Homo sapiens). Description: Binding affinity to P-selectin (unknown origin) assessed as hyperchromic effect at 340.8 nanometer at 0.42 mM by UV spectroscopy.
The target of assay [15] is T2, P-selectin (Homo sapiens). The experiment in a line: Binding affinity to P-selectin (unknown origin) assessed as bathochromic shift at 340.8 nanometer at 0.42 mM by UV spectroscopy.
In assay [16] the test system is Rattus norvegicus. The experiment in a line: Antithrombotic activity in po dosed Sprague-Dawley rat model of thrombosis assessed as inhibition of thrombus formation measured after 30 mins. Format: functional.
For assay [17], the species on record is Rattus norvegicus. The experiment in a line: Potency index, ratio of compound efficacy to aspirin efficacy for antithrombotic activity in Sprague-Dawley rat model of thrombosis. Format: functional.
The subject of assay [18] is Mus musculus. Description: Antithrombosis activity in ferric chloride induced ICR mouse model of thrombosis assessed as inhibition of thrombus formation at 200 nmol/kg, po measured after 15 mins. The class given is functional, organism-based.
The species entered for assay [19] is Mus musculus. Description: Potency index, ratio of compound efficacy to aspirin efficacy in ferric chloride induced ICR mouse model of thrombosis. The class given is functional.
The test system of assay [20] is Mus musculus. Description: Potency index, ratio of compound efficacy to aspirin efficacy in xylene induced ICR mouse ear edema model. The class given is functional.
In assay [21] the test system is Mus musculus. Description: Decrease in serum TNF-alpha level in xylene induced ICR mouse ear edema model administered orally 30 mins prior to topical administration of xylene. Format: functional.
Assay [22] relates to Mus musculus. Description: Decrease in serum IL8 level in xylene induced ICR mouse ear edema model at 2 nmol/kg,po pretreated for 30 mins followed by topical administration of xylene. Format: functional.
Assay [23] relates to Mus musculus. Description: Decrease in serum IL8 level in xylene induced ICR mouse ear edema model administered orally 30 mins prior to topical administration of xylene. Format: functional.
Assay [24] addresses T1, P-selectin (Rattus norvegicus). The experiment in a line: Downregulation of P-selectin expression in arachidonic acid-activated Sprague-Dawley rat platelets at 200 to 2000 nM pretreated with platelets followed by arachidonic acid addition measured after 3 mins by ELISA.
The target in assay [25] is T2, P-selectin (Homo sapiens). Description: Binding affinity to P-selectin (unknown origin) assessed as red shift at 352 nanometer at 0.42 mM by UV spectroscopy.

Consider `CC(=O)Oc1ccccc1C(=O)O`, for which the inhibition entry with Mus musculus [1] and in the assay on Rattus norvegicus [3] was “Active” each time. In the assay on Mus musculus [2], the result was Active.
Consider `O=C(O)[C@H](Cc1ccccc1)NCCc1nc(CO)cc2c1[nH]c1ccccc12`, for which the MEC in [4] came out at 200 nM; in assay [6], 20 nM; in the assay on Mus musculus [21], 200 nmol/kg; in the assay on Mus musculus [23], 2 nmol/kg. Also, the Activity entry in the assay on Mus musculus [5] was “Dose-dependent effect”; in assay [6] it was “Dose-dependent effect”; in assay [10], 0.451; in assay [11], 0.355; in [12], 0.339; in [13] it was 1.4 nm. For the same compound, the Activity in [14] was 51.2%; in assay [15] it was 0.6 nm; with Mus musculus [23], “Dose-dependent effect”; in [25] it was 1.4 nm. Moreover, the MED with Mus musculus [5] and in the assay on Rattus norvegicus [16] was 20 nmol/kg throughout. Besides, the Flu intensity came out at 871 in assay [7], 754 in assay [8] and 665 in [9]. Further, the inhibition entry with Rattus norvegicus [16] was “Dose-dependent effect”. In addition, the Ratio in the assay filed under Rattus norvegicus [17] is 835; in the assay filed under Mus musculus [19], 1200; with Mus musculus [20], 550. Moreover, in the assay on Mus musculus [18], the inhibition entry was “Active”. Further, the result (in the assay with Mus musculus [22]; in assay [24]) was Active.
